Laboratory results taken from PubChem BioAssay (NCI).
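These data come from cells grown in 96-well plates and exposed to compound for 48 hours at five concentrations. GI50 is the concentration that inhibits growth by half. TGI denotes the concentration required for complete inhibition of growth.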

Assays:
Test in all cases: NCI anticancer screen, dose series, 48 h
NCI/ADR-RES ovarian = test system: NCI/ADR-RES ovarian
HCT-15 colon = test system: HCT-15 colon
A498 renal = test system: A498 renal
SF-268 CNS = test system: SF-268 CNS
UO-31 renal = test system: UO-31 renal
RPMI-8226 leukemia = test system: RPMI-8226 leukemia
PC-3 prostate = test system: PC-3 prostate
K-562 leukemia = test system: K-562 leukemia
T-47D breast = test system: T-47D breast
MALME-3M melanoma = test system: MALME-3M melanoma
HOP-62 NSCLC = test system: HOP-62 NSCLC
SK-OV-3 ovarian = test system: SK-OV-3 ovarian
MOLT-4 leukemia = test system: MOLT-4 leukemia
HOP-92 NSCLC = test system: HOP-92 NSCLC
CAKI-1 renal = test system: CAKI-1 renal
SK-MEL-28 melanoma = test system: SK-MEL-28 melanoma
ACHN renal = test system: ACHN renal
CCRF-CEM leukemia = test system: CCRF-CEM leukemia
RXF 393 renal = test system: RXF 393 renal
HS 578T breast = test system: HS 578T breast
COLO 205 colon = test system: COLO 205 colon
SF-539 CNS = test system: SF-539 CNS
NCI-H460 lung = test system: NCI-H460 lung
SK-MEL-2 melanoma = test system: SK-MEL-2 melanoma
SNB-19 CNS = test system: SNB-19 CNS
NCI-H23 lung = test system: NCI-H23 lung
SN12C renal = test system: SN12C renal
NCI-H522 lung = test system: NCI-H522 lung
SNB-75 CNS = test system: SNB-75 CNS
BT-549 breast = test system: BT-549 breast
A549 NSCLC = test system: A549 NSCLC
HCT-116 colon = test system: HCT-116 colon
MCF7 breast = test system: MCF7 breast
KM12 colon = test system: KM12 colon
HCC-2998 colon = test system: HCC-2998 colon
OVCAR-5 ovarian = test system: OVCAR-5 ovarian
DU-145 prostate = test system: DU-145 prostate
EKVX NSCLC = test system: EKVX NSCLC
NCI-H226 lung = test system: NCI-H226 lung
M14 melanoma = test system: M14 melanoma
MDA-MB-231 breast = test system: MDA-MB-231 breast
UACC-257 melanoma = test system: UACC-257 melanoma
HL-60(TB) leukemia = test system: HL-60(TB) leukemia
SW-620 colon = test system: SW-620 colon
OVCAR-4 ovarian = test system: OVCAR-4 ovarian
TK-10 renal = test system: TK-10 renal
OVCAR-3 ovarian = test system: OVCAR-3 ovarian
786-0 renal = test system: 786-0 renal

**Q.** `CC[C@H](Nc1nc(N)nc(C2CC2)c1C#N)c1nc2cccc(NCc3ccc(C(=O)NO)cc3)c2c(=O)n1-c1ccccc1` was tested. Which GI50 (NCI/ADR-RES ovarian) did it give?
**A.** 3.31 µM

**Q.** And the TGI (NCI/ADR-RES ovarian)?
**A.** 15.6 µM

**Q.** And the GI50 (HCT-15 colon)?
**A.** 2.05 µM

**Q.** And the TGI (HCT-15 colon)?
**A.** 6.96 µM

**Q.** And the GI50 (A498 renal)?
**A.** 1.7 µM

**Q.** And the TGI (A498 renal)?
**A.** 3.69 µM

**Q.** And the GI50 (SF-268 CNS)?
**A.** 1.74 µM

**Q.** And the TGI (SF-268 CNS)?
**A.** 4.12 µM

**Q.** And the GI50 (UO-31 renal)?
**A.** 1.26 µM

**Q.** And the TGI (UO-31 renal)?
**A.** 2.59 µM

**Q.** And the GI50 (RPMI-8226 leukemia)?
**A.** 2.52 µM

**Q.** What about the TGI (RPMI-8226 leukemia) of the same compound?
**A.** 9.03 µM

**Q.** And the GI50 (PC-3 prostate)?
**A.** 2.11 µM

**Q.** And the TGI (PC-3 prostate)?
**A.** 14.6 µM

**Q.** What about the GI50 (K-562 leukemia) of the same compound?
**A.** 2.81 µM

**Q.** And the TGI (K-562 leukemia)?
**A.** > 100 µM

**Q.** What about the GI50 (T-47D breast) of the same compound?
**A.** 1.82 µM

**Q.** What about the TGI (T-47D breast) of the same compound?
**A.** 5.78 µM

**Q.** And the GI50 (MALME-3M melanoma)?
**A.** 1.78 µM

**Q.** What about the TGI (MALME-3M melanoma) of the same compound?
**A.** 4.61 µM

**Q.** What about the GI50 (HOP-62 NSCLC) of the same compound?
**A.** 1.63 µM

**Q.** And the TGI (HOP-62 NSCLC)?
**A.** 4.29 µM

**Q.** And the GI50 (SK-OV-3 ovarian)?
**A.** 1.9 µM

**Q.** What about the TGI (SK-OV-3 ovarian) of the same compound?
**A.** 4.38 µM

**Q.** And the GI50 (MOLT-4 leukemia)?
**A.** 2.2 µM

**Q.** And the TGI (MOLT-4 leukemia)?
**A.** 10.9 µM

**Q.** And the GI50 (HOP-92 NSCLC)?
**A.** 1.73 µM

**Q.** What about the TGI (HOP-92 NSCLC) of the same compound?
**A.** 4.59 µM

**Q.** What about the GI50 (CAKI-1 renal) of the same compound?
**A.** 1.5 µM

**Q.** What about the TGI (CAKI-1 renal) of the same compound?
**A.** 3.38 µM

**Q.** What about the GI50 (SK-MEL-28 melanoma) of the same compound?
**A.** 2.67 µM

**Q.** What about the TGI (SK-MEL-28 melanoma) of the same compound?
**A.** 7.44 µM

**Q.** And the GI50 (ACHN renal)?
**A.** 1.85 µM

**Q.** What about the TGI (ACHN renal) of the same compound?
**A.** 4.58 µM

**Q.** And the GI50 (CCRF-CEM leukemia)?
**A.** 0.734 µM

**Q.** And the TGI (CCRF-CEM leukemia)?
**A.** > 100 µM

**Q.** And the GI50 (RXF 393 renal)?
**A.** 0.582 µM

**Q.** And the TGI (RXF 393 renal)?
**A.** 1.99 µM

**Q.** What about the GI50 (HS 578T breast) of the same compound?
**A.** 2.8 µM

**Q.** What about the TGI (HS 578T breast) of the same compound?
**A.** 9.51 µM

**Q.** And the GI50 (COLO 205 colon)?
**A.** 2.24 µM

**Q.** And the TGI (COLO 205 colon)?
**A.** 5.75 µM

**Q.** What about the GI50 (SF-539 CNS) of the same compound?
**A.** 1.72 µM

**Q.** And the TGI (SF-539 CNS)?
**A.** 3.24 µM

**Q.** And the GI50 (NCI-H460 lung)?
**A.** 1.7 µM

**Q.** And the TGI (NCI-H460 lung)?
**A.** 3.79 µM

**Q.** What about the GI50 (SK-MEL-2 melanoma) of the same compound?
**A.** 2.44 µM

**Q.** What about the TGI (SK-MEL-2 melanoma) of the same compound?
**A.** 6.75 µM

**Q.** What about the GI50 (SNB-19 CNS) of the same compound?
**A.** 2.18 µM

**Q.** And the TGI (SNB-19 CNS)?
**A.** 6.94 µM

**Q.** And the GI50 (NCI-H23 lung)?
**A.** 1.98 µM

**Q.** What about the TGI (NCI-H23 lung) of the same compound?
**A.** 4.48 µM

**Q.** What about the GI50 (SN12C renal) of the same compound?
**A.** 1.79 µM

**Q.** What about the TGI (SN12C renal) of the same compound?
**A.** 5.39 µM

**Q.** And the GI50 (NCI-H522 lung)?
**A.** 1.69 µM

**Q.** And the TGI (NCI-H522 lung)?
**A.** 4.67 µM

**Q.** And the GI50 (SNB-75 CNS)?
**A.** 1.57 µM

**Q.** What about the TGI (SNB-75 CNS) of the same compound?
**A.** 5.43 µM

**Q.** And the GI50 (BT-549 breast)?
**A.** 2.5 µM

**Q.** And the TGI (BT-549 breast)?
**A.** 7.84 µM

**Q.** What about the GI50 (A549 NSCLC) of the same compound?
**A.** 1.93 µM

**Q.** What about the TGI (A549 NSCLC) of the same compound?
**A.** 4.52 µM

**Q.** And the GI50 (HCT-116 colon)?
**A.** 1.25 µM

**Q.** What about the TGI (HCT-116 colon) of the same compound?
**A.** 2.71 µM

**Q.** What about the GI50 (MCF7 breast) of the same compound?
**A.** 2.06 µM

**Q.** And the TGI (MCF7 breast)?
**A.** 8.28 µM

**Q.** And the GI50 (KM12 colon)?
**A.** 2.07 µM

**Q.** What about the TGI (KM12 colon) of the same compound?
**A.** 4.69 µM

**Q.** And the GI50 (HCC-2998 colon)?
**A.** 1.95 µM

**Q.** And the TGI (HCC-2998 colon)?
**A.** 5 µM

**Q.** And the GI50 (OVCAR-5 ovarian)?
**A.** 1.92 µM

**Q.** And the TGI (OVCAR-5 ovarian)?
**A.** 5.08 µM

**Q.** What about the GI50 (DU-145 prostate) of the same compound?
**A.** 1.95 µM

**Q.** What about the TGI (DU-145 prostate) of the same compound?
**A.** 4.56 µM

**Q.** What about the GI50 (EKVX NSCLC) of the same compound?
**A.** 1.75 µM

**Q.** What about the TGI (EKVX NSCLC) of the same compound?
**A.** 3.73 µM

**Q.** And the GI50 (NCI-H226 lung)?
**A.** 1.47 µM

**Q.** And the TGI (NCI-H226 lung)?
**A.** 4.18 µM

**Q.** And the GI50 (M14 melanoma)?
**A.** 2.02 µM

**Q.** And the TGI (M14 melanoma)?
**A.** 4.66 µM

**Q.** What about the GI50 (MDA-MB-231 breast) of the same compound?
**A.** 1.42 µM

**Q.** What about the TGI (MDA-MB-231 breast) of the same compound?
**A.** 3.86 µM

**Q.** What about the GI50 (UACC-257 melanoma) of the same compound?
**A.** 2.05 µM

**Q.** And the TGI (UACC-257 melanoma)?
**A.** 6.16 µM

**Q.** And the GI50 (HL-60(TB) leukemia)?
**A.** 2.35 µM

**Q.** And the TGI (HL-60(TB) leukemia)?
**A.** 5.65 µM

**Q.** And the GI50 (SW-620 colon)?
**A.** 1.73 µM

**Q.** And the TGI (SW-620 colon)?
**A.** 4.81 µM

**Q.** What about the GI50 (OVCAR-4 ovarian) of the same compound?
**A.** 2.6 µM

**Q.** And the TGI (OVCAR-4 ovarian)?
**A.** > 100 µM

**Q.** What about the GI50 (TK-10 renal) of the same compound?
**A.** 2.75 µM

**Q.** What about the TGI (TK-10 renal) of the same compound?
**A.** 30.3 µM

**Q.** And the GI50 (OVCAR-3 ovarian)?
**A.** 1.73 µM

**Q.** And the TGI (OVCAR-3 ovarian)?
**A.** 4.55 µM

**Q.** And the GI50 (786-0 renal)?
**A.** 1.68 µM

**Q.** What about the TGI (786-0 renal) of the same compound?
**A.** 3.36 µM
